The supplement of paper PMC10307832

Legend:
Experiment in all cases: relative viability (nuclei count vs DMSO), 5 days (fraction); higher = more cells survive
EPLC-272H = tested on: EPLC-272H
Summary of the method: (§1)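 Lung cancer cell lines were seeded in 1536-well plates and dosed by pin tool the next day, with either a single drug or a fixed anchor-drug dose combined with five library-drug doses (not always all listed) spaced in √10 steps. Five days later, one step fixed the cells and stained their nuclei (final 0.05% Triton X-100, 1% formaldehyde, 1 ug/ml Hoechst), and nuclei were counted on 4× images. Relative viability is the nuclei count in treated wells divided by the count in vehicle wells, and each value is the median of duplicate plates.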

NCI-H520 = tested on: NCI-H520
Summary of the method: as §1

NCI-H1651 = tested on: NCI-H1651
Summary of the method: as §1

NCI-H2405 = tested on: NCI-H2405
Summary of the method: as §1

NCI-H23 = tested on: NCI-H23
Summary of the method: as §1

ChaGo-K-1 = tested on: ChaGo-K-1
Summary of the method: as §1

NCI-H2087 = tested on: NCI-H2087
Summary of the method: as §1

NCI-H322M = tested on: NCI-H322M
Summary of the method: as §1

UMC-11 = tested on: UMC-11
Summary of the method: as §1

SK-MES-1 = tested on: SK-MES-1
Summary of the method: as §1

NCI-H1563 = tested on: NCI-H1563
Summary of the method: as §1

NCI-H1944 = tested on: NCI-H1944
Summary of the method: as §1

Work on `COc1cc(N2CCC(C(N)=O)CC2)ccc1Nc1nc(N)c(Cl)c(Nc2ccccc2S(=O)(=O)C(C)C)n1` [HG-5-88-01] + Cc1nc(Nc2ncc(C(=O)Nc3c(C)cccc3Cl)s2)cc(N2CCN(CCO)CC2)n1 [Dasatinib] (partner 0.075 µM) yielded a relative viability (EPLC-272H; first compound 0.04 µM) of 0.49, a relative viability (EPLC-272H; first compound 0.1265 µM) of 0.31 and a relative viability (EPLC-272H; first compound 0.4 µM) of 0.226. It also gave a relative viability (EPLC-272H; first compound 1.265 µM) of 0.121, a relative viability (EPLC-272H; first compound 4 µM) of 0.0712 and a relative viability (NCI-H520; first compound 0.04 µM) of 0.201. For the same compound, the relative viability (NCI-H520; first compound 0.1265 µM) was 0.176, the relative viability (NCI-H520; first compound 0.4 µM) was 0.184 and the relative viability (NCI-H520; first compound 1.265 µM) was 0.162. For the same compound, the relative viability (NCI-H520; first compound 4 µM) was 0.2, the relative viability (NCI-H1651; first compound 0.04 µM) was 0.368 and the relative viability (NCI-H1651; first compound 0.1265 µM) was 0.619. It also gave a relative viability (NCI-H1651; first compound 0.4 µM) of 0.375, a relative viability (NCI-H1651; first compound 1.265 µM) of 0.249 and a relative viability (NCI-H1651; first compound 4 µM) of 0.246. The relative viability (NCI-H2405; first compound 0.04 µM) was 0.207, the relative viability (NCI-H2405; first compound 0.1265 µM) was 0.179 and the relative viability (NCI-H2405; first compound 0.4 µM) was 0.155. The relative viability (NCI-H2405; first compound 1.265 µM) was 0.197, the relative viability (NCI-H2405; first compound 4 µM) was 0.153 and the relative viability (NCI-H23; first compound 0.04 µM) was 0.703. For the same compound, the relative viability (NCI-H23; first compound 0.1265 µM) was 0.84, the relative viability (NCI-H23; first compound 0.4 µM) was 0.51 and the relative viability (NCI-H23; first compound 1.265 µM) was 0.588. It also gave a relative viability (NCI-H23; first compound 4 µM) of 0.265, a relative viability (ChaGo-K-1; first compound 0.04 µM) of 0.776 and a relative viability (ChaGo-K-1; first compound 0.1265 µM) of 0.63. The relative viability (ChaGo-K-1; first compound 0.4 µM) was 0.509, the relative viability (ChaGo-K-1; first compound 1.265 µM) was 0.57 and the relative viability (ChaGo-K-1; first compound 4 µM) was 0.401. For the same compound, the relative viability (NCI-H2087; first compound 0.04 µM) was 0.826, the relative viability (NCI-H2087; first compound 0.1265 µM) was 0.787 and the relative viability (NCI-H2087; first compound 0.4 µM) was 0.601. It also gave a relative viability (NCI-H2087; first compound 1.265 µM) of 0.389, a relative viability (NCI-H2087; first compound 4 µM) of 0.167 and a relative viability (NCI-H322M; first compound 0.04 µM) of 0.247. The relative viability (NCI-H322M; first compound 0.1265 µM) was 0.194, the relative viability (NCI-H322M; first compound 0.4 µM) was 0.189 and the relative viability (NCI-H322M; first compound 4 µM) was 0.216. For the same compound, the relative viability (UMC-11; first compound 0.04 µM) was 0.434, the relative viability (UMC-11; first compound 0.1265 µM) was 0.449 and the relative viability (UMC-11; first compound 1.265 µM) was 0.469. For the same compound, the relative viability (UMC-11; first compound 4 µM) was 0.409, the relative viability (SK-MES-1; first compound 0.04 µM) was 0.335 and the relative viability (SK-MES-1; first compound 0.1265 µM) was 0.304. It also gave a relative viability (SK-MES-1; first compound 0.4 µM) of 0.124, a relative viability (SK-MES-1; first compound 1.265 µM) of 0.112 and a relative viability (SK-MES-1; first compound 4 µM) of 0.155. It also gave a relative viability (NCI-H1563; first compound 0.04 µM) of 0.453, a relative viability (NCI-H1563; first compound 0.1265 µM) of 0.445 and a relative viability (NCI-H1563; first compound 0.4 µM) of 0.436. For the same compound, the relative viability (NCI-H1563; first compound 1.265 µM) was 0.367, the relative viability (NCI-H1563; first compound 4 µM) was 0.381 and the relative viability (NCI-H1944; first compound 0.04 µM) was 0.205. For the same compound, the relative viability (NCI-H1944; first compound 0.1265 µM) was 0.201.
